# Measurements reported in article PMC11206029, “Identification and Characterization of Cannabichromene’s Major Metabolite Following Incubation with Human Liver Microsomes” (Metabolites, 2024).
# Read-outs that look alike come from different tables or passages of the source.
# Tests used:
# human recombinant CB2R = human recombinant CB2R (Homo sapiens, UniProt P34972); assay: Competitive radioligand binding assay, displacement of [^3H]CP 55,940; conditions: for Hill Slope: CB2R, means ± S.E.M. of four to ten experiments
# Chain of human recombinant CB2R (P34972 whole entry): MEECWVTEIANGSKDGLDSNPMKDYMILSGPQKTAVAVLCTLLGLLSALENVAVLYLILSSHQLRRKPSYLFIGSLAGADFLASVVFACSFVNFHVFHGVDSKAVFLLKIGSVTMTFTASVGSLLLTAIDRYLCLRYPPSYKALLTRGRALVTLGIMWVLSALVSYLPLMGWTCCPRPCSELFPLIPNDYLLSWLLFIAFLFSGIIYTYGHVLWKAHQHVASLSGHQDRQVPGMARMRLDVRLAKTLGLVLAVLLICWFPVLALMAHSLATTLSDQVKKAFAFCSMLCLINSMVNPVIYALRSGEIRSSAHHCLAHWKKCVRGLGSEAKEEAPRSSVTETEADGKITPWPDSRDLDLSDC
# human recombinant CB1R = human recombinant CB1R (Homo sapiens, UniProt P21554); assay: biochemical; format: binding
# Chain of human recombinant CB1R (P21554 whole entry): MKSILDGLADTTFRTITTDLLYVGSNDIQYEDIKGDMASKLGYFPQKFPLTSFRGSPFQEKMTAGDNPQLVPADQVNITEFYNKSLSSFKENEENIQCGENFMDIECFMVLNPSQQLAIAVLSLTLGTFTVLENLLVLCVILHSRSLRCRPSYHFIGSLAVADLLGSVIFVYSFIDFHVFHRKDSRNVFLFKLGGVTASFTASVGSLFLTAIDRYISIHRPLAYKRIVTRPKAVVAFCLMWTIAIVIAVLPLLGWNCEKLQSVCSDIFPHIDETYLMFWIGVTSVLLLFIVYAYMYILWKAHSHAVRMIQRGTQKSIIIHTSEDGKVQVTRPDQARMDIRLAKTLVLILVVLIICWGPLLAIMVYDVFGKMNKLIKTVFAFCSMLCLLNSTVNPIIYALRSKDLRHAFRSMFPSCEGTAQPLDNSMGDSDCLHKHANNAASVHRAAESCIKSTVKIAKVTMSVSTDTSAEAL
# microglia = system: microglia; parameters: method as in PMID 38477310; conditions: microglia following lipopolysaccharide challenge; cited from earlier work
# [1] = parameters: method as in PMID 1806943; conditions: cat-derived liver microsomes; cited from earlier work
# [2] = parameters: method as in PMID 1806943; conditions: hamster-derived liver microsomes; cited from earlier work
# [3] = parameters: method as in PMID 37574147; conditions: human hepatic biotransformation; cited from earlier work
# [4] = parameters: method as in PMID 1806943; conditions: gerbil-derived liver microsomes; cited from earlier work
# [5] = Incubation of CBC with pooled human liver microsomes, metabolite identification; format: in vitro ADME
# Experimental: To maximize the yield of CBC metabolites, parameters including incubation time, HLM protein concentration, and CBC concentration were optimized, and representative extracted ion chromatograms are available in the Supplementary Materials (Section S1.2). The parameters resulting in the highest yield of metabolites were determined to be 0.5 mg/mL HLM, 50 µg/mL CBC, and a 40 min incubation time. Prior to adding the drug, the NADPH-generating system was incubated on a shaker set to 150 rpm at a temperature of 37 ± 2 °C for 10 min (C24 Incubator Shaker, New Brunswick Scientific, Edison, NJ, USA). […]
# The HPLC components for the semi-preparative isolation of the major CBC metabolite were as follows: G1322A degasser, G1312A binary pump, G1329B 1260 ALS, G1315B DAD, G1364B fraction collector (all Agilent Technologies, Santa Clara, CA, USA), and an external column compartment ThermaSphere (Phenomenex, Torrance, CA, USA). […] UV absorbance was monitored at 210 nm and 231 nm. […] Isolated metabolites and controls were analyzed utilizing both LC-MS/MS and GC-MS/MS as described below. […]
# Samples were derivatized and analyzed using GC-MS/MS based on the previous literature. […] Samples were cooled, transferred to autosampler vials and immediately analyzed via GC-MS/MS. […]
SMILES,Ki (human recombinant CB2R) [µM],Ki (human recombinant CB1R) [µM],Inflammatory phenotype by nitric oxide production (microglia),Hill Slope (human recombinant CB2R),other results
CCCCCc1cc2c3c(c1)OC1(C)CCC(C3C1O)C(C)(C)O2 (stereo not drawn) [2′-hydroxycannabicitran],> 10,> 10,–,–,–
"CCCCCc1cc(O)c2c(c1)OC(C)(CCC(O)C(C)(C)O)C=C2 (stereo not drawn) [6′, 7′-dihydroxy-CBC]",–,–,reduction in nitric oxide production,–,–
CCCCCc1cc(O)c2c(c1)OC(C)(CC/C=C(\C)CO)C=C2 (stereo not drawn) [8′-hydroxy-CBC],–,–,pro-inflammatory,–,–
"CCCCCc1cc(O)c2c(c1)OC(C)(CCC=C(C)C)C=C2 (stereo not drawn) [CBC, Cannabichromene]",0.301 ± 0.072,3.5 ± 1.2,–,−1.32 ± 0.36,"Epoxidation across the alkene on the branched aliphatic chain, share of the total amount of metabolites generated [1]: 42%; Hill Slope (human recombinant CB1R; CB1R, means ± S.E.M. of four to ten experiments): −0.27 ± 0.51; Epoxidation across the alkene on the branched aliphatic chain, share of the total amount of metabolites generated [2]: 10%; Hydroxylation, share of all CBC metabolites produced [3]: 31%; Monoglucuronides, share of all CBC metabolites produced [3]: ~50%; Epoxidation across the alkene on the branched aliphatic chain, share of the total amount of metabolites generated [4]: 12%; Major metabolite generated by HLMs ([5]; 0.5 mg/mL HLM, 50 µg/mL CBC, 40 min incubation, NADPH-generating system): 2′-hydroxycannabicitran; Formation of carboxylic acid metabolites ([5]; incubation with HLM, optimized conditions): did not observe any carboxylic acid metabolites"
"CCCCCc1cc2c3c(c1)OC(C)(C)C1CCC(C)(CC31)O2 (stereo not drawn) [CBT-C, cannabicitran, reference compound]",4.2 ± 0.41,> 10,–,−1.15 ± 0.14,–
